Experiments:
Assay in all cases: radiometric filter-binding kinase assay, Kinase HotSpot
Details in all cases: compound 0.5 µM; ATP 10 µM
STK39 (human) = STK39 (human) (UniProt Q9UEW8)
NTRK2 (human) = NTRK2 (human) (UniProt Q16620)
ABL2 (human) = ABL2 (human) (UniProt P42684)
MINK1 (human) = MINK1 (human) (UniProt Q8N4C8)
LCK (human) = LCK (human) (UniProt P06239)
GSG2 (human) = GSG2 (human) (UniProt Q8TF76)
EPHB1 (human) = EPHB1 (human) (UniProt P54762)
OXSR1 (human) = OXSR1 (human) (UniProt O95747)
CDK4 CCND1 (human) = CDK4 CCND1 (human) (UniProt P24385+P11802)
MARK1 (human) = MARK1 (human) (UniProt Q9P0L2)
NEK4 (human) = NEK4 (human) (UniProt P51957)
FRK (human) = FRK (human) (UniProt P42685)
NUAK2 (human) = NUAK2 (human) (UniProt Q9H093)
CSNK2A2 (human) = CSNK2A2 (human) (UniProt P19784)
TAOK3 (human) = TAOK3 (human) (UniProt Q9H2K8)
STK17A (human) = STK17A (human) (UniProt Q9UEE5)
CDK1 CCNA2 (human) = CDK1 CCNA2 (human) (UniProt P06493+P20248)
KIT (human) = KIT (human) (UniProt P10721)
CDK2 CCNA2 (human) = CDK2 CCNA2 (human) (UniProt P24941+P20248)
PIM1 (human) = PIM1 (human) (UniProt P11309)
BRSK2 (human) = BRSK2 (human) (UniProt Q8IWQ3)
PRKCB1 (human) = PRKCB1 (human) (UniProt P05771)
CHEK2 (human) = CHEK2 (human) (UniProt O96017)
CSNK1E (human) = CSNK1E (human) (UniProt P49674)
GRK6 (human) = GRK6 (human) (UniProt P43250)
MAP4K2 (human) = MAP4K2 (human) (UniProt Q12851)
FLT3 (human) = FLT3 (human) (UniProt P36888)
CSK (human) = CSK (human) (UniProt P41240)
EPHA2 (human) = EPHA2 (human) (UniProt P29317)
AKT1 (human) = AKT1 (human) (UniProt P31749)
MKNK2 (human) = MKNK2 (human) (UniProt Q9HBH9)
AURKB (human) = AURKB (human) (UniProt Q96GD4)
PRKD1 (human) = PRKD1 (human) (UniProt Q15139)
ACVRL1 (human) = ACVRL1 (human) (UniProt P37023)
MAPKAPK2 (human) = MAPKAPK2 (human) (UniProt P49137)
IGF1R (human) = IGF1R (human) (UniProt P08069)
[1] = molecular target: TYK2 JH1 catalytic (human) (UniProt P29597)
RPS6KA3 KD1 KD2 (human) = RPS6KA3 KD1 KD2 (human) (UniProt P51812)
HIPK4 (human) = HIPK4 (human) (UniProt Q8NE63)
CSNK1G2 (human) = CSNK1G2 (human) (UniProt P78368)
MARK3 (human) = MARK3 (human) (UniProt P27448)
PIM3 (human) = PIM3 (human) (UniProt Q86V86)

Sequence of STK17A (human) (Q9UEE5 whole entry, looked up): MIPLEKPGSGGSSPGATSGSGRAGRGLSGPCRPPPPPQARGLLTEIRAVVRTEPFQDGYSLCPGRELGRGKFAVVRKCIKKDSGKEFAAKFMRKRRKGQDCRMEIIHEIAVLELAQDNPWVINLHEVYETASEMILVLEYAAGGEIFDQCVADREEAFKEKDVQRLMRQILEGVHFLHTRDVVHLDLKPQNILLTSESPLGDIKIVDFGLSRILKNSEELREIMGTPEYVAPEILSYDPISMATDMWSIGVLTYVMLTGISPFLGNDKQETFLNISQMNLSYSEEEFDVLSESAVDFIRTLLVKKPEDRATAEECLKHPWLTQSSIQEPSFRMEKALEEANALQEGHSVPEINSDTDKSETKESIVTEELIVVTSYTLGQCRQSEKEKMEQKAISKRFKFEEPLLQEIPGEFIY
Sequence of CDK4 CCND1 (human) (P11802 whole entry, looked up): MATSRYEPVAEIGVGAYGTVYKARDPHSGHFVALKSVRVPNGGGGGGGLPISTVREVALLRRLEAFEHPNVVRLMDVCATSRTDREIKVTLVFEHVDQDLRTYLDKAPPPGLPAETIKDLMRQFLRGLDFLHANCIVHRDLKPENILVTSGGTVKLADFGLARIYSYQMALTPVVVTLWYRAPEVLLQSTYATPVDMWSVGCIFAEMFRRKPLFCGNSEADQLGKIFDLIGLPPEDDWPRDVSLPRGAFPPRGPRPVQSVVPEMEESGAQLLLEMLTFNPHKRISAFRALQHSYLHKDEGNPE
Sequence of CDK4 CCND1 (human) (P24385 whole entry, looked up): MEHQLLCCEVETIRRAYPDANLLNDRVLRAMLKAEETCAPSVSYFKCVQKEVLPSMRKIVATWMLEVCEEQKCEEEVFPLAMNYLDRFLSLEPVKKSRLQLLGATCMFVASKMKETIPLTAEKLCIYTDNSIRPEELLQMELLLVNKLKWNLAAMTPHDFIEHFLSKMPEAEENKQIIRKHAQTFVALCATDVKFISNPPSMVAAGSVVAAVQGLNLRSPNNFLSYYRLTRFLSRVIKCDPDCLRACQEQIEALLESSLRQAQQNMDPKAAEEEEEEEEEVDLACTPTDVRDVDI
Sequence of AKT1 (human) (P31749 whole entry, looked up): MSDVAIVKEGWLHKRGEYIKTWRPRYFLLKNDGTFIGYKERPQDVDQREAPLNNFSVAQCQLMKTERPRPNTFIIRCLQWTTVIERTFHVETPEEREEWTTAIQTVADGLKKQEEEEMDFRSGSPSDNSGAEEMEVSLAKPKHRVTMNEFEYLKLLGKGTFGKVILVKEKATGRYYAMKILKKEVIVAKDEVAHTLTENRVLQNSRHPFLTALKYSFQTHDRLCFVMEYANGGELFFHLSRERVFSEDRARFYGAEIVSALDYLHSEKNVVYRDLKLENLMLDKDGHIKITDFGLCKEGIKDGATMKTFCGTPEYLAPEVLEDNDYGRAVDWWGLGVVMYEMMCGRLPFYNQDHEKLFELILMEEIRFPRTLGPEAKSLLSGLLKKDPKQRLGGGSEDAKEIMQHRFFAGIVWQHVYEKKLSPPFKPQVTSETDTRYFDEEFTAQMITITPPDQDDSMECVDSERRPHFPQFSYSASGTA
Sequence of EPHB1 (human) (P54762 whole entry, looked up): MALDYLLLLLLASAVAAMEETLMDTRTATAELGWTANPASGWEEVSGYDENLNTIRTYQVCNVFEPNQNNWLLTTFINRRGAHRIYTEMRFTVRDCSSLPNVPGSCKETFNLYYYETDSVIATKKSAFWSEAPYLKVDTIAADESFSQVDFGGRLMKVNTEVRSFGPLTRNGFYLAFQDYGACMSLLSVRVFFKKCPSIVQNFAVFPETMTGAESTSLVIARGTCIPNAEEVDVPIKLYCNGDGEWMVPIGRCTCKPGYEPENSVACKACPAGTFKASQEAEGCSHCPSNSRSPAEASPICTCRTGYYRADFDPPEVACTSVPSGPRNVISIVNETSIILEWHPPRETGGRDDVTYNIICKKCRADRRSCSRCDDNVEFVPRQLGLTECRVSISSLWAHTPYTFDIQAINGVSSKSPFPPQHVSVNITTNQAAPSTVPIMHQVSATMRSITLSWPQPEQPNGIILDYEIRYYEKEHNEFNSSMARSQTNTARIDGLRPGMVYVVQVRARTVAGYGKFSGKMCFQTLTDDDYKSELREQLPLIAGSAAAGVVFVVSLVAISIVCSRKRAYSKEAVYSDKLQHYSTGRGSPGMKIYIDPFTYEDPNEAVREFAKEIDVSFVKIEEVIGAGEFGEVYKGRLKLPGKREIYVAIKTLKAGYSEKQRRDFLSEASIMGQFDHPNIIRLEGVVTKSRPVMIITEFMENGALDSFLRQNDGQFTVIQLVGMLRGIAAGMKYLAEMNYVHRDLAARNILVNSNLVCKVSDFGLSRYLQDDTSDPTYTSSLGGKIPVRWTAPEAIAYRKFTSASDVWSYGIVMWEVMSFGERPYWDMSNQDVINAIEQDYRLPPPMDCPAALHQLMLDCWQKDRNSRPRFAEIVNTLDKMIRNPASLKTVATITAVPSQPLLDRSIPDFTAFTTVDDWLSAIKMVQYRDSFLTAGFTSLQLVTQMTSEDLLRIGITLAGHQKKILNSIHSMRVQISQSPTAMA
Sequence of EPHA2 (human) (P29317 whole entry, looked up): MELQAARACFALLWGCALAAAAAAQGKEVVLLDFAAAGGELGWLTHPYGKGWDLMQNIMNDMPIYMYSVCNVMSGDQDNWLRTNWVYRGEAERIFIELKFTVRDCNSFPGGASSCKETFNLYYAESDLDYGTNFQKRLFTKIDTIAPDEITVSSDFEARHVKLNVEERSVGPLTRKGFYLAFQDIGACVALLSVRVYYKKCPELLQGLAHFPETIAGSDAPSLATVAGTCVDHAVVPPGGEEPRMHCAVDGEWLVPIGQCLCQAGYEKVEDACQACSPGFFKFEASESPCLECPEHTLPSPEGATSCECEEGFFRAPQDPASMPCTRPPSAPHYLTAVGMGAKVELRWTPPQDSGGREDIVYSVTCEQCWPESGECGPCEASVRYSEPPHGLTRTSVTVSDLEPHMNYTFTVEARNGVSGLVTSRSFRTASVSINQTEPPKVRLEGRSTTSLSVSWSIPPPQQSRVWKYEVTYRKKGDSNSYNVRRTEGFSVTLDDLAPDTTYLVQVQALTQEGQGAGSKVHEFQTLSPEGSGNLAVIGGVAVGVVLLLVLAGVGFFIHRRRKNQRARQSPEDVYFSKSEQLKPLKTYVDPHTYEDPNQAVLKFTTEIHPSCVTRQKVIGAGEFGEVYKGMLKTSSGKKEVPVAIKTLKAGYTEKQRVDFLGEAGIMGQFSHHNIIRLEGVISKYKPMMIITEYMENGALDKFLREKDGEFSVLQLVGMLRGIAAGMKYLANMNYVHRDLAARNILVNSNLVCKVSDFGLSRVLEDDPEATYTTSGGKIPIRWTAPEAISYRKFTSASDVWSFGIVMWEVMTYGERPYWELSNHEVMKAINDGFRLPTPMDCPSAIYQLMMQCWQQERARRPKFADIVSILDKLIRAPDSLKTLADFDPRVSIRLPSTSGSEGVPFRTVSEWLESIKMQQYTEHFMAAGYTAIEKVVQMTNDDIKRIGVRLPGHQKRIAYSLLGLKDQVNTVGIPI
Sequence of OXSR1 (human) (O95747 whole entry, looked up): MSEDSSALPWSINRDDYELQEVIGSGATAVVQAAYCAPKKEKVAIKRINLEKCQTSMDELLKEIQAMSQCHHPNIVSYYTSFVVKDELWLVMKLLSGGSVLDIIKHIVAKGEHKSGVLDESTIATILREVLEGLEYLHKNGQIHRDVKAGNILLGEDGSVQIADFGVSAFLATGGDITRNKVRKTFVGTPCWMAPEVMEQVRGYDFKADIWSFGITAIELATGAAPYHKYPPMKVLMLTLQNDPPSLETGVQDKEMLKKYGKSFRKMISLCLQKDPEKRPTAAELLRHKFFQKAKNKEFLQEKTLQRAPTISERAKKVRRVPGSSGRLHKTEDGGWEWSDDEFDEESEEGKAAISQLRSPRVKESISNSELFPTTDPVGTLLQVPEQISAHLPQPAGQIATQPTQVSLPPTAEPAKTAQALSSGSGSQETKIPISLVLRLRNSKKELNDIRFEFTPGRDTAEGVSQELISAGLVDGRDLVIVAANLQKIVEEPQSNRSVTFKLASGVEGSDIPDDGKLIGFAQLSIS
Sequence of CSNK1E (human) (P49674 whole entry, looked up): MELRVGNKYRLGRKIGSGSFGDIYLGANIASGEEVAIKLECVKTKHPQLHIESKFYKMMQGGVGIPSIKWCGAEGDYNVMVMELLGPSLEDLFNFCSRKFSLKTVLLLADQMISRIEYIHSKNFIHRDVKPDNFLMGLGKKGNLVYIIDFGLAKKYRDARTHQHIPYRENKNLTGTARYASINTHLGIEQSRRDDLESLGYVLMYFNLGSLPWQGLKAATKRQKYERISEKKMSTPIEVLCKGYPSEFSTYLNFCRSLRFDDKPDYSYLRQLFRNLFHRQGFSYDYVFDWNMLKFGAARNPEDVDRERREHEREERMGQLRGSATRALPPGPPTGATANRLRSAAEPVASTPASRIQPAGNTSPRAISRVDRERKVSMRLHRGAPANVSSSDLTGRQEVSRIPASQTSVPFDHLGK
Sequence of CSK (human) (P41240 whole entry, looked up): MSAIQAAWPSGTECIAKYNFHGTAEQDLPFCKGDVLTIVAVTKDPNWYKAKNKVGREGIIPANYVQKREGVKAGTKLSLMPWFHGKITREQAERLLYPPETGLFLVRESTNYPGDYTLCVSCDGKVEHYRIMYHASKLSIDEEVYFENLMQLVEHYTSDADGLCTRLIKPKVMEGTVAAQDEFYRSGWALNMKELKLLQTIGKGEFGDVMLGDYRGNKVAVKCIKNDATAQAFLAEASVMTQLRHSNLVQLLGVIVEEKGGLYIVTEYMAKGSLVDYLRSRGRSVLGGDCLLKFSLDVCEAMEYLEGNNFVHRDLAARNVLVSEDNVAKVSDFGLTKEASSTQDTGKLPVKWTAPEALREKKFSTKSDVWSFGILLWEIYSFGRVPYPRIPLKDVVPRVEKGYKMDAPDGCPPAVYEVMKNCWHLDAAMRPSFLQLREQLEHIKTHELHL

Question: What does the source list for `COc1cc2ncnc(N3CCN(C(=O)Nc4ccc(Oc5ccccc5)cc4)CC3)c2cc1OC`?
Answer: residual activity (STK39 (human)): 83.2%; residual activity (NTRK2 (human)): 121%; residual activity (ABL2 (human)): 92.9%; residual activity (MINK1 (human)): 99.6%; residual activity (LCK (human)): 92.3%; residual activity (GSG2 (human)): 93.2%; residual activity (EPHB1 (human)): 94.3%; residual activity (OXSR1 (human)): 119%; residual activity (CDK4 CCND1 (human)): 101%; residual activity (MARK1 (human)): 99.1%; residual activity (NEK4 (human)): 94.4%; residual activity (FRK (human)): 90.2%; residual activity (NUAK2 (human)): 77.4%; residual activity (CSNK2A2 (human)): 61.9%; residual activity (TAOK3 (human)): 95.3%; residual activity (STK17A (human)): 85.5%; residual activity (CDK1 CCNA2 (human)): 92.3%; residual activity (KIT (human)): 48.2%; residual activity (CDK2 CCNA2 (human)): 93.1%; residual activity (PIM1 (human)): 102%; residual activity (BRSK2 (human)): 94.1%; residual activity (PRKCB1 (human)): 94.5%; residual activity (CHEK2 (human)): 102%; residual activity (CSNK1E (human)): 94.6%; residual activity (GRK6 (human)): 96.4%; residual activity (MAP4K2 (human)): 94.7%; residual activity (FLT3 (human)): 43.2%; residual activity (CSK (human)): 81.3%; residual activity (EPHA2 (human)): 95.7%; residual activity (AKT1 (human)): 93.7%; residual activity (MKNK2 (human)): 94.2%; residual activity (AURKB (human)): 76.1%; residual activity (PRKD1 (human)): 102%; residual activity (ACVRL1 (human)): 93%; residual activity (MAPKAPK2 (human)): 102%; residual activity (IGF1R (human)): 103%; residual activity [1]: 83.1%; residual activity (RPS6KA3 KD1 KD2 (human)): 115%; residual activity (HIPK4 (human)): 75.4%; residual activity (CSNK1G2 (human)): 94.6%; residual activity (MARK3 (human)): 80.4%; residual activity (PIM3 (human)): 94.4%

Question: For `CN([C@@H](Cc1ccc(OS(=O)(=O)c2cccc3cnccc23)cc1)C(=O)N1CCN(c2ccccc2)CC1)S(=O)(=O)c1cccc2cnccc12`, which residual activity (STK39 (human)) is on record?
Answer: The residual activity was 93.5%.

Question: What about the residual activity (NTRK2 (human)) of the same compound?
Answer: Its residual activity is 103%.

Question: And the residual activity (ABL2 (human))?
Answer: Its residual activity is 98.9%.

Question: And the residual activity (MINK1 (human))?
Answer: The residual activity was 98.2%.

Question: What about the residual activity (LCK (human)) of the same compound?
Answer: The residual activity was 97.5%.

Question: And the residual activity (GSG2 (human))?
Answer: Its residual activity is 94.7%.

Question: What about the residual activity (EPHB1 (human)) of the same compound?
Answer: Its residual activity is 94.2%.

Question: And the residual activity (OXSR1 (human))?
Answer: Its residual activity is 101%.

Question: And the residual activity (CDK4 CCND1 (human))?
Answer: The residual activity was 95.3%.

Question: And the residual activity (MARK1 (human))?
Answer: Its residual activity is 96.7%.

Question: What about the residual activity (NEK4 (human)) of the same compound?
Answer: The residual activity was 99.5%.

Question: And the residual activity (FRK (human))?
Answer: The residual activity was 101%.

Question: And the residual activity (NUAK2 (human))?
Answer: Its residual activity is 88.7%.

Question: And the residual activity (CSNK2A2 (human))?
Answer: Its residual activity is 121%.

Question: What about the residual activity (TAOK3 (human)) of the same compound?
Answer: Its residual activity is 89.9%.

Question: And the residual activity (STK17A (human))?
Answer: The residual activity was 104%.

Question: What about the residual activity (KIT (human)) of the same compound?
Answer: The residual activity was 96.3%.

Question: What about the residual activity (CDK2 CCNA2 (human)) of the same compound?
Answer: The residual activity was 99.8%.

Question: And the residual activity (PIM1 (human))?
Answer: The residual activity was 106%.

Question: What about the residual activity (BRSK2 (human)) of the same compound?
Answer: The residual activity was 100%.

Question: And the residual activity (PRKCB1 (human))?
Answer: Its residual activity is 95.9%.

Question: What about the residual activity (CHEK2 (human)) of the same compound?
Answer: Its residual activity is 101%.

Question: And the residual activity (CSNK1E (human))?
Answer: Its residual activity is 103%.

Question: What about the residual activity (GRK6 (human)) of the same compound?
Answer: The residual activity was 101%.

Question: What about the residual activity (MAP4K2 (human)) of the same compound?
Answer: Its residual activity is 89.5%.

Question: And the residual activity (FLT3 (human))?
Answer: The residual activity was 103%.

Question: And the residual activity (CSK (human))?
Answer: The residual activity was 96.2%.

Question: And the residual activity (EPHA2 (human))?
Answer: The residual activity was 101%.

Question: What about the residual activity (AKT1 (human)) of the same compound?
Answer: The residual activity was 102%.

Question: And the residual activity (MKNK2 (human))?
Answer: The residual activity was 104%.

Question: What about the residual activity (AURKB (human)) of the same compound?
Answer: The residual activity was 104%.

Question: And the residual activity (PRKD1 (human))?
Answer: Its residual activity is 101%.

Question: What about the residual activity (ACVRL1 (human)) of the same compound?
Answer: The residual activity was 103%.

Question: And the residual activity (MAPKAPK2 (human))?
Answer: The residual activity was 103%.

Question: What about the residual activity (IGF1R (human)) of the same compound?
Answer: The residual activity was 105%.

Question: And the residual activity [1]?
Answer: The residual activity was 110%.

Question: And the residual activity (RPS6KA3 KD1 KD2 (human))?
Answer: Its residual activity is 98.6%.

Question: And the residual activity (HIPK4 (human))?
Answer: The residual activity was 105%.

Question: And the residual activity (CSNK1G2 (human))?
Answer: Its residual activity is 100%.

Question: What about the residual activity (MARK3 (human)) of the same compound?
Answer: Its residual activity is 93.7%.

Question: What about the residual activity (PIM3 (human)) of the same compound?
Answer: Its residual activity is 113%.
